The source of these data is patent publication US7662832B2, “Pyrrolo[2,3-c]pyridine derivatives and processes for the preparation thereof” (priority 2004, dated 2010).

Structures can show the parent of a compound that is named as a salt.

The target of the test is Proton Pump (H^+/K^+-ATPase) (Sus scrofa, UniProt P19156). Nature of the test: Inhibitory effects on proton pump (H^+/K^+-ATPase) activity. Conditions: hog gastric vesicles; K^+ stimulated H^+/K^+-ATPase activity; 30 minutes at 37° C. The test is classed as biochemical.
Proton Pump (H^+/K^+-ATPase), sequence (P19156 2-1034 limits assumed): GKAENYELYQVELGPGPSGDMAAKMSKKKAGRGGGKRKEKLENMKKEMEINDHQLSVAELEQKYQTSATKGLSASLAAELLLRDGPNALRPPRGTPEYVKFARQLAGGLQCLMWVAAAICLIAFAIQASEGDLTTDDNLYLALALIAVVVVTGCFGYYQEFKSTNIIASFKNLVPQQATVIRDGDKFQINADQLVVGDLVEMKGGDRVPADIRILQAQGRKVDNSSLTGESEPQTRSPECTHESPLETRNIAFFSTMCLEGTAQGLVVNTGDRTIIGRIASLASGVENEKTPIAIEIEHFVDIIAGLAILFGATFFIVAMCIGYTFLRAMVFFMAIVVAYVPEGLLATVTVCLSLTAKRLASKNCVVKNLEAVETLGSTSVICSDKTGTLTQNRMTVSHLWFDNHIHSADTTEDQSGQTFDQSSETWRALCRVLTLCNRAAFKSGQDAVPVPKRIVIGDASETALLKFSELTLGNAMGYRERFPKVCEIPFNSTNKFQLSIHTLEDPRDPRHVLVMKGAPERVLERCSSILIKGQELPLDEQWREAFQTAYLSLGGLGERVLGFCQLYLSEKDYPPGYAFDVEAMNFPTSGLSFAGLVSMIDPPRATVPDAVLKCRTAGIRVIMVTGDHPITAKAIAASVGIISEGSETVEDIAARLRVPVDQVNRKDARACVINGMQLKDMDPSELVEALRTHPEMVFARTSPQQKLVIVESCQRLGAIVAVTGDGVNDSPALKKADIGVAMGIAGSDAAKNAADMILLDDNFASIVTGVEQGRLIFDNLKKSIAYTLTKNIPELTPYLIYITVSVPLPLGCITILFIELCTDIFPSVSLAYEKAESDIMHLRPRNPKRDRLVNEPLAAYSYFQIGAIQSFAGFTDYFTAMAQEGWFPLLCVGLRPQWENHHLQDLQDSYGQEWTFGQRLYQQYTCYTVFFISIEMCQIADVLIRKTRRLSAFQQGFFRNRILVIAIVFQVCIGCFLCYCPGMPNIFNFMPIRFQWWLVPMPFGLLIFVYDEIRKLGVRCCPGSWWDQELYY
Proton Pump (H^+/K^+-ATPase), sequence (P18434 whole entry partner): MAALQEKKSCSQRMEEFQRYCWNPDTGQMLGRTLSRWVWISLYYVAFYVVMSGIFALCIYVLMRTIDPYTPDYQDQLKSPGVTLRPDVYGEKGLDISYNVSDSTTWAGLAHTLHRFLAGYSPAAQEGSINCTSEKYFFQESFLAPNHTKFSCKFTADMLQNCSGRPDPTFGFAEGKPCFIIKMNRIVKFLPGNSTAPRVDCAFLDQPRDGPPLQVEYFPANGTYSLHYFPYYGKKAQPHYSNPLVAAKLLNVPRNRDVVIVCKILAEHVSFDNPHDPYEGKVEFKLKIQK
For orientation: IC50 means the concentration that inhibits the measured activity by half. `Cc1c(C)n(Cc2cccc(F)c2)c2c(N3CCc4ccccc4C3)nc(CO)cc12` [Example 851, 7-(3,4-dihydro-1H-isoquinolin-2-yl)-1-(3-fluorobenzyl)-2,3-dimethyl-1H-pyrrolo[2,3-c]pyridin-5-yl]-methanol hydrochloride] showed an IC50 of 32 nM.

`Cc1c(C)n(Cc2ccc(Cl)cc2)c2c(CN(C)c3ccc(F)cc3)nccc12` [Example 113, N-[1-(4-chlorobenzyl)-2,3-dimethyl-1H-pyrrolo[2,3-c]pyridin-7-ylmethyl]-N-(4-fluorophenyl)-methylamine hydrochloride] had an IC50 of 327 nM.

As to `Cc1[nH]c2c(N3CCc4ccccc4C3C)nccc2c1C` (stereo not shown) [Example 552, 2-(2,3-dimethyl-1H-pyrrolo[2,3-c]pyridin-7-yl)-1-methyl-1,2,3,4-tetrahydroisoquinoline hydrochloride], the 50% inhibitory concentration (IC50) came to 36 nM.

`Cc1[nH]c2c(-c3ccc(Cl)cc3)nccc2c1C` [Example 299, 7-(4-chlorophenyl)-2,3-dimethyl-1H-pyrrolo[2,3-c]pyridine hydrochloride] showed an IC50 of 350 nM.

For `Cc1ccc(Cn2c(C)c(C)c3ccnc(CCc4ccccc4)c32)cc1` [Example 444, 2,3-dimethyl-1-(4-methylbenzyl)-7-phenethyl-1H-pyrrolo[2,3-c]pyridine hydrochloride], the half-maximal inhibitory concentration (IC50) worked out at 122 nM.

Molecule `Cc1c(C)n(Cc2cccc(F)c2)c2c(N3CCc4ccccc4C3)nc(C=O)cc12` [Example 864, 7-(3,4-dihydro-1H-isoquinolin-2-yl)-1-(3-fluorobenzyl)-2,3-dimethyl-1H-pyrrolo[2,3-c]pyridin-5-carbaldehyde hydrochloride] gave an IC50 of 213 nM.

With `C=CCCn1c(C)c(C)c2ccnc(NCc3ccccc3)c21` [Example 181, 7-benzylamino-1-(but-3-enyl)-2,3-dimethyl-1H-pyrrolo[2,3-c]pyridine hydrochloride], the IC50 stood at 360 nM.

`COCCn1c(C)c(C)c2cc(C(=O)N3CCCCC3)nc(N3CCc4ccccc4C3)c21` [Example 792, [7-(3,4-dihydro-1H-isoquinolin-2-yl)-1-(2-methoxyethyl)-2,3-dimethyl-1H-pyrrolo[2,3-c]pyridin-5-yl]-(piperidin-1-yl)-methanone hydrochloride] yielded an IC50 of 59 nM.

The molecule `Cc1c(C)n(Cc2cccc(F)c2)c2c(-c3ccc4ccccc4c3)nccc12` [Example 405, 1-(3-fluorobenzyl)-2,3-dimethyl-7-(naphthalen-2-yl)-1H-pyrrolo[2,3-c]pyridine hydrochloride] registered a concentration for half-maximal inhibition (IC50) of 73 nM.

`CCN1CCN(C(=O)c2cc3c(C)c(C)n(Cc4cccc(OC)c4)c3c(N3CCc4ccccc4C3)n2)CC1` [Example 824, [7-(3,4-dihydro-1H-isoquinolin-2-yl)-1-(3-methoxybenzyl)-2,3-dimethyl-1H-pyrrolo[2,3-c]pyridin-5-yl]-(4-ethylpiperazin-1-yl)-methanone hydrochloride] registered an IC50 of 33 nM.

Molecule `CCc1[nH]c2c(N3CCc4ccccc4C3)nccc2c1C` [Example 591, 2-ethyl-3-methyl-7-(1,2,3,4-tetrahydroisoquinolin-2-yl)-1H-pyrrolo[2,3-c]pyridine] showed a half-maximal inhibitory concentration (IC50) of 499 nM.

Regarding `CNC(=O)c1cc2c(C)c(C)n(Cc3ccccc3)c2c(N2CCc3ccccc3C2)n1` [Example 772, 1-benzyl-7-(3,4-dihydro-1H-isoquinolin-2-yl)-2,3-dimethyl-N-methyl-1H-pyrrolo[2,3-c]pyridin-5-carboxamide hydrochloride], the concentration for half-maximal inhibition (IC50) came to 546 nM.

`Cc1c(C)n(Cc2ccccc2)c2c(N3CCc4ccccc4C3)nc(C(=O)N3CCSCC3)cc12` [Example 789, [1-benzyl-7-(3,4-dihydro-1H-isoquinolin-2-yl)-2,3-dimethyl-1H-pyrrolo[2,3-c]pyridin-5-yl]-(thiomorpholin-1-yl)-methanone hydrochloride] registered an IC50 of 65 nM.

The molecule `COCCn1c(C)c(C)c2cc(C(=O)N3CCN(C)CC3)nc(N3CCc4ccccc4C3)c21` [Example 821, [7-(3,4-dihydro-1H-isoquinolin-2-yl)-1-(2-methoxyethyl)-2,3-dimethyl-1H-pyrrolo[2,3-c]pyridin-5-yl]-(4-methylpiperazin-1-yl)-methanone hydrochloride] displayed a half-inhibitory concentration (IC50) of 26 nM.

For `Cc1c(C)n(Cc2ccccc2F)c2c(-c3ccc4ccccc4c3)nccc12` [Example 409, 1-(2-fluorobenzyl)-2,3-dimethyl-7-(naphthalen-2-yl)-1H-pyrrolo[2,3-c]pyridine hydrochloride], the IC50 was found to be 93 nM.

Molecule `Cc1ccc(CNc2nccc3c(C)c(C)n(CC4CC4)c23)cc1` [Example 204, 1-cyclopropylmethyl-2,3-dimethyl-7-(4-methylbenzylamino)-1H-pyrrolo[2,3-c]pyridine hydrochloride] had an IC50 of 210 nM.

Molecule `Cc1cc2ccnc(N3CCc4ccccc4C3)c2n1Cc1cccc(F)c1` [Example 613, 2-[1-(3-fluorobenzyl)-2-methyl-1H-pyrrolo[2,3-c]pyridin-7-yl]-1,2,3,4-tetrahydroisoquinoline hydrochloride] registered an IC50 of 375 nM.

Molecule `Cc1c(C)n(Cc2ccccc2)c2c(NCc3ccc(F)cc3)nc(C(=O)N3CCOCC3)cc12` [Example 909, [1-benzyl-7-(4-fluorobenzylamino)-2,3-dimethyl-1H-pyrrolo[2,3-c]pyridin-5-yl]-(morpholin-4-yl)-methanone hydrochloride] had an IC50 of 90 nM.

For `CSc1ccc(-c2nccc3c(C)c(C)n(Cc4ccc(C)cc4)c23)cc1` [Example 267, 2,3-dimethyl-1-(4-methylbenzyl)-7-(4-methylsulfanylphenyl)-1H-pyrrolo[2,3-c]pyridine hydrochloride], inhibition was half-maximal at 110 nM (IC50).

The molecule `Cc1c(C)n(Cc2cccc(Cl)c2)c2c(N3CCc4ccccc4C3)nc(-c3nnnn3C)cc12` [Example 853, 2-[1-(3-chlorobenzyl)-2,3-dimethyl-5-(1-methyl-1H-tetrazol-5-yl)-1H-pyrrolo[2,3-c]pyridin-7-yl]-1,2,3,4-tetrahydroisoquinoline] showed an IC50 of 36 nM.

With `Cc1c(C)n(Cc2ccccc2)c2c(CN(C)c3ccc(F)cc3)nccc12` [Example 111, N-(1-benzyl-2,3-dimethyl-1H-pyrrolo[2,3-c]pyridin-7-ylmethyl)-N-(4-fluorophenyl)-methylamine hydrochloride], the half-inhibitory concentration (IC50) turned out to be 25 nM.

Molecule `Cc1c(C)n(CC(C)C)c2c(N3CCc4ccccc4C3)nc(C(=O)N3CCNCC3)cc12` [Example 815, [7-(3,4-dihydro-1H-isoquinolin-2-yl)-1-isobutyl-2,3-dimethyl-1H-pyrrolo[2,3-c]pyridin-5-yl]-(piperazin-1-yl)-methanone hydrochloride] gave an IC50 of 29 nM.

`COc1cccc(Cn2c(C)c(C)c3cc(C(=O)N4CCOCC4)nc(N4CCc5ccccc5C4)c32)c1` [Example 780, [7-(3,4-dihydro-1H-isoquinolin-2-yl)-1-(3-methoxybenzyl)-2,3-dimethyl-1H-pyrrolo[2,3-c]pyridin-5-yl]-(morpholin-4-yl)-methanone hydrochloride] came in with an IC50 of 125 nM.

The molecule `C=Cc1ccc(-c2nccc3c(C)c(C)n(CC)c23)cc1` [Example 251, 1-ethyl-2,3-dimethyl-7-(4-vinylphenyl)-1H-pyrrolo[2,3-c]pyridine hydrochloride] yielded an IC50 of 460 nM.

In the case of `Cc1ccc(CNCc2cc3c(C)c(C)n(Cc4cccc(F)c4)c3c(N3CCc4ccccc4C3)n2)cc1` [Example 867, N-[7-(3,4-dihydro-1H-isoquinolin-2-yl)-1-(3-fluorobenzyl)-2,3-dimethyl-1H-pyrrolo[2,3-c]pyridin-5-ylmethyl]-4-methylbenzylamine hydrochloride], the IC50 is 412 nM.

As for `C=CCn1c(C)c(C)c2ccnc(-c3ccc(F)cc3)c21` [Example 326, 1-allyl-7-(4-fluorophenyl)-2,3-dimethyl-1H-pyrrolo[2,3-c]pyridine hydrochloride], the IC50 stood at 306 nM.

`CCCn1c(C)c(C)c2ccnc(-c3ccc4ccccc4c3)c21` [Example 407, 2,3-dimethyl-7-(naphthalen-2-yl)-1-propyl-1H-pyrrolo[2,3-c]pyridine hydrochloride] yielded a concentration for half-maximal inhibition (IC50) of 113 nM.

In the case of `C=CCCn1c(C)c(C)c2ccnc(N(C)Cc3ccc(F)cc3)c21` [Example 157, 1-(but-3-enyl)-7-[N-(4-fluorobenzyl)-N-methyl]amino-2,3-dimethyl-1H-pyrrolo[2,3-c]pyridine hydrochloride], it took 380 nM to reach half-maximal inhibition (IC50).

In turn, `Cc1cccc(Cn2c(C)c(C)c3cc(CN4CCN(C)CC4)nc(N4CCc5ccccc5C4)c32)c1` [Example 878, 2-[2,3-dimethyl-1-(3-methylbenzyl)-5-(4-methylpiperazin-1-ylmethyl)-1H-pyrrolo[2,3-c]pyridin-7-yl]-1,2,3,4-tetrahydroisoquinoline hydrochloride] displayed an IC50 of 152 nM.

The molecule `C=CCn1c(C)c(C)c2cc(N)nc(N3CCc4ccccc4C3)c21` [Example 846, 1-allyl-7-(3,4-dihydro-1H-isoquinolin-2-yl)-2,3-dimethyl-1H-pyrrolo[2,3-c]pyridin-5-amine hydrochloride] returned an IC50 of 139 nM.

As to `C=Cc1ccc(-c2nccc3c(C)c(C)n(Cc4ccccc4)c23)cc1` [Example 246, 1-benzyl-2,3-dimethyl-7-(4-vinylphenyl)-1H-pyrrolo[2,3-c]pyridine hydrochloride], the IC50 was found to be 110 nM.

Turning to `Cc1nc(Cn2c(C)c(C)c3ccnc(N4CCc5ccc(Cl)cc5C4C)c32)cs1` (stereo not shown) [Example 538, 7-chloro-2-[2,3-dimethyl-1-(2-methylthiazol-4-ylmethyl)-1H-pyrrolo[2,3-c]pyridin-7-yl]-1-methyl-1,2,3,4-tetrahydroisoquinoline hydrochloride], half-maximal inhibition (IC50) was put at 244 nM.

`Cc1c(C)n(Cc2ccccc2F)c2c(N3CCc4ccccc4C3)nccc12` [Example 483, 1-(2-fluorobenzyl)-7-(1,2,3,4-tetrahydroisoquinolin-2-yl)-2,3-dimethyl-1H-pyrrolo[2,3-c]pyridine hydrochloride]: the IC50 was found to be 330 nM.

On to `C=Cc1ccc(-c2nccc3c(C)c(C)n(Cc4cccc(OC)c4)c23)cc1` [Example 253, 2,3-dimethyl-1-(3-methoxybenzyl)-7-(4-vinylphenyl)-1H-pyrrolo[2,3-c]pyridine hydrochloride], for which the IC50 was determined as 170 nM.
